Measured values taken from ChEMBL document CHEMBL1201862, “PubChem BioAssay data set” (2004).
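Values below derive from 48-hour exposures of cells grown in 96-well plates, with endpoints linearly interpolated between the two concentrations bracketing the appropriate inhibition level. GI50 = concentration required for 50% inhibition of growth.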 Activity calls are given as the source filed them. Cut-off read from the data, not from the text of the source: active = GI50 up to about 1.1 µM and inactive = higher.

Tests used:
Assay in all cases: DTP human tumour cell line panel, 48 h
[1] = tested on: 786-0
[2] = tested on: CAKI-1
[3] = tested on: HCC 2998
[4] = tested on: IGROV-1
[5] = tested on: KM12
[6] = tested on: MOLT-4
[7] = tested on: NCI-H522
[8] = tested on: OVCAR-4
[9] = tested on: OVCAR-5
[10] = tested on: OVCAR-8
[11] = tested on: RXF 393
[12] = tested on: SK-MEL-5
[13] = tested on: SK-OV-3
[14] = tested on: TK-10
[15] = tested on: U-251
[16] = tested on: UO-31

Compound	GI50 [1]	GI50 [2]	GI50 [3]	GI50 [4]	GI50 [5]	GI50 [6]	GI50 [7]	GI50 [8]	GI50 [9]	GI50 [10]	GI50 [11]	GI50 [12]	GI50 [13]	GI50 [14]	GI50 [15]	GI50 [16]
C=CC(=O)N1C/C(=C\c2ccc(Cl)c(Cl)c2)C(=O)/C(=C/c2ccc(Cl)c(Cl)c2)C1	0.0579 µM (active)	0.244 µM (active)	0.204 µM (active)	0.124 µM (active)	0.237 µM (active)	0.103 µM (active)	0.149 µM (active)	0.0318 µM (active)	0.294 µM (active)	0.115 µM (active)	0.148 µM (active)	0.478 µM (active)	0.378 µM (active)	0.501 µM (active)	0.0226 µM (active)	0.207 µM (active)
CC(C)(C)C(C#N)(C#N)c1ccc(C(C#N)(C#N)C(C)(C)C)nn1	74 µM (inactive)	83 µM (inactive)	> 100 µM (inactive)	> 100 µM (inactive)	> 100 µM (inactive)	> 100 µM (inactive)	> 100 µM (inactive)	89.7 µM (inactive)	> 100 µM (inactive)	> 100 µM (inactive)	43.3 µM (inactive)	> 100 µM (inactive)	41.3 µM (inactive)	> 100 µM (inactive)		> 100 µM (inactive)
Cc1ccc(C(c2c(O)c3ccccc3n(-c3ccccc3)c2=O)c2c(O)c3ccccc3n(-c3ccccc3)c2=O)cc1	38.1 µM (inactive)	> 100 µM (inactive)	> 100 µM (inactive)		> 100 µM (inactive)	24.2 µM (inactive)	> 100 µM (inactive)	> 100 µM (inactive)	> 100 µM (inactive)		53.2 µM (inactive)	> 100 µM (inactive)		> 100 µM (inactive)	> 100 µM (inactive)	> 100 µM (inactive)
CC1(C)OCN(c2ccc(S(N)(=O)=O)cc2)Cn2c1nc1ccccc12	> 100 µM (inactive)		> 100 µM (inactive)	> 100 µM (inactive)	> 100 µM (inactive)	> 100 µM (inactive)	> 100 µM (inactive)	> 100 µM (inactive)		> 100 µM (inactive)	> 100 µM (inactive)		> 100 µM (inactive)	> 100 µM (inactive)	> 100 µM (inactive)	> 100 µM (inactive)
Cc1ccc(/C=C/C(=O)c2sc(C(N)=S)nc2C)cc1	> 100 µM (inactive)	> 100 µM (inactive)	> 100 µM (inactive)	> 100 µM (inactive)	> 100 µM (inactive)	> 100 µM (inactive)	> 100 µM (inactive)		> 100 µM (inactive)	> 100 µM (inactive)	> 100 µM (inactive)	45.8 µM (inactive)	> 100 µM (inactive)	> 100 µM (inactive)	> 100 µM (inactive)	> 100 µM (inactive)
COc1ccc(-c2c(N)[n+]([O-])c3ccccc3[n+]2[O-])cc1OC	> 100 µM (inactive)	> 100 µM (inactive)		> 100 µM (inactive)	> 100 µM (inactive)	> 100 µM (inactive)	> 100 µM (inactive)	> 100 µM (inactive)	> 100 µM (inactive)	> 100 µM (inactive)		> 100 µM (inactive)	> 100 µM (inactive)		> 100 µM (inactive)	> 100 µM (inactive)
Cn1c2ccccc2c2cc(-c3ccccc3)c3c(c21)C(=O)c1ccccc1C3=O	16.9 µM (inactive)	28.3 µM (inactive)	48.8 µM (inactive)	21 µM (inactive)	21.5 µM (inactive)	5.04 µM (inactive)	15.2 µM (inactive)	14.5 µM (inactive)		18.2 µM (inactive)			38.3 µM (inactive)	48.3 µM (inactive)		11 µM (inactive)
COc1ccccc1NC(=O)CC(=O)N/N=C/c1ccc(N(CCC#N)S(=O)(=O)c2ccccc2)cc1	> 100 µM (inactive)	> 100 µM (inactive)	> 100 µM (inactive)	> 100 µM (inactive)	> 100 µM (inactive)	> 100 µM (inactive)	> 100 µM (inactive)	> 100 µM (inactive)	> 100 µM (inactive)	> 100 µM (inactive)		> 100 µM (inactive)		> 100 µM (inactive)	> 100 µM (inactive)	> 100 µM (inactive)
Cc1ccc([N+](=O)[O-])cc1NC(=O)C(=O)Cc1nc2ccc(C(=O)c3ccccc3)cc2nc1O	> 100 µM (inactive)	> 100 µM (inactive)	> 100 µM (inactive)	> 100 µM (inactive)	93.3 µM (inactive)	> 100 µM (inactive)	> 100 µM (inactive)	> 100 µM (inactive)		> 100 µM (inactive)	> 100 µM (inactive)	> 100 µM (inactive)	> 100 µM (inactive)	> 100 µM (inactive)		> 100 µM (inactive)
Nn1c(CCCl)nc2c(Br)cc(Br)cc2c1=O	27.7 µM (inactive)	30.7 µM (inactive)	40.2 µM (inactive)	21 µM (inactive)	18.7 µM (inactive)	22.7 µM (inactive)	15.9 µM (inactive)	19.1 µM (inactive)	30.1 µM (inactive)	41.5 µM (inactive)	36.1 µM (inactive)	17.3 µM (inactive)	33.1 µM (inactive)	34.3 µM (inactive)	23.1 µM (inactive)	25.1 µM (inactive)
COC(=O)C12C3C4C1C1C2C3C41C(=O)N(C(C)C)C(C)C (stereo not drawn)	> 100 µM (inactive)		> 100 µM (inactive)	> 100 µM (inactive)	> 100 µM (inactive)	> 100 µM (inactive)	> 100 µM (inactive)	> 100 µM (inactive)	> 100 µM (inactive)	> 100 µM (inactive)		> 100 µM (inactive)	> 100 µM (inactive)	> 100 µM (inactive)	> 100 µM (inactive)	> 100 µM (inactive)
O=C(CCc1nnc(S)[nH]1)Nc1cc(Cl)c(Cl)cc1Cl	> 100 µM (inactive)	> 100 µM (inactive)	> 100 µM (inactive)	> 100 µM (inactive)	> 100 µM (inactive)	> 100 µM (inactive)	> 100 µM (inactive)	> 100 µM (inactive)	> 100 µM (inactive)	> 100 µM (inactive)	> 100 µM (inactive)	> 100 µM (inactive)	> 100 µM (inactive)	> 100 µM (inactive)	> 100 µM (inactive)	> 100 µM (inactive)
O=C(CC1(O)C(=O)Nc2ccc([N+](=O)[O-])cc21)c1ccc(Br)cc1 (stereo not drawn)	61 µM (inactive)		> 100 µM (inactive)		42.9 µM (inactive)	35.8 µM (inactive)	19.6 µM (inactive)	49.7 µM (inactive)	> 100 µM (inactive)	39.8 µM (inactive)	28.6 µM (inactive)		25.1 µM (inactive)	32.7 µM (inactive)	22.3 µM (inactive)	45.1 µM (inactive)
COC(=O)C1C(/C=C/c2ccoc2)ON2CCC[C@@H]12 (stereo partly drawn)	> 100 µM (inactive)	> 100 µM (inactive)	> 100 µM (inactive)		> 100 µM (inactive)		> 100 µM (inactive)	> 100 µM (inactive)	> 100 µM (inactive)	> 100 µM (inactive)	47.8 µM (inactive)			> 100 µM (inactive)	> 100 µM (inactive)	> 100 µM (inactive)
Cc1ccc(S(=O)OC2C3CC4CC(C3)CC2C4)cc1 (stereo not drawn)	> 100 µM (inactive)	> 100 µM (inactive)	> 100 µM (inactive)	> 100 µM (inactive)	> 100 µM (inactive)	> 100 µM (inactive)	> 100 µM (inactive)	> 100 µM (inactive)	> 100 µM (inactive)	> 100 µM (inactive)	> 100 µM (inactive)	> 100 µM (inactive)	> 100 µM (inactive)	> 100 µM (inactive)	> 100 µM (inactive)	> 100 µM (inactive)
CN/N=C(\C(=O)Nc1ccc([N+](=O)[O-])cc1[N+](=O)[O-])C1NC(=O)NC1=O (stereo not drawn)	> 100 µM (inactive)	> 100 µM (inactive)	> 100 µM (inactive)	> 100 µM (inactive)	> 100 µM (inactive)	> 100 µM (inactive)		> 100 µM (inactive)	> 100 µM (inactive)	> 100 µM (inactive)	> 100 µM (inactive)	> 100 µM (inactive)	> 100 µM (inactive)	> 100 µM (inactive)	27.9 µM (inactive)	> 100 µM (inactive)
C=C1C(=O)OC2CC3(C)C=CC(=O)C(=C)C3CC12 (stereo not drawn)	1.76 µM (inactive)	1.36 µM (inactive)	2.6 µM (inactive)	2.28 µM (inactive)	2.08 µM (inactive)	1.03 µM (active)	0.47 µM (active)	2.18 µM (inactive)	3.24 µM (inactive)	1.55 µM (inactive)	2.03 µM (inactive)	1.72 µM (inactive)	20.8 µM (inactive)	2.15 µM (inactive)	3.79 µM (inactive)	1.75 µM (inactive)
CCCCN(CCCC)CC(C(=O)Nc1ccc([N+](=O)[O-])cc1[N+](=O)[O-])/C(C)=N\NC(=O)c1ccncc1 (stereo not drawn)	> 100 µM (inactive)	> 100 µM (inactive)	> 100 µM (inactive)	> 100 µM (inactive)		> 100 µM (inactive)	> 100 µM (inactive)	> 100 µM (inactive)	> 100 µM (inactive)	> 100 µM (inactive)	> 100 µM (inactive)	> 100 µM (inactive)	> 100 µM (inactive)	> 100 µM (inactive)	> 100 µM (inactive)	> 100 µM (inactive)
